From patent US10781171B2, “Substituted pyrrolidines as G-protein coupled receptor 43 agonists” (Epics Therapeutics, priority 2009, dated 2020)

System: ob/ob mice
Test: Oral glucose tolerance test (OGTT) in ob/ob mice
Assay type: in vivo, mouse
Settings: blood glucose AUC -15 to 120 min in OGTT, 50 mg/kg bi-daily for 28 days
Experimental: Ob/ob or obese mice are leptin-deficient mice that eat excessively and become profoundly obese, hyperinsulinemic and hyperglycemic. It is an animal model of type II diabetes. Such model can be used for oral glucose tolerance tests (OGTTs). A total of sixteen (16) male ob/ob mice (6 weeks of age) were obtained from Harlan. Upon arrival to the animal unit, mice were housed 4 per cage in rodent cages mounted with feeders containing regular chow. The mice were put in a 12/12h light-dark cycle (light from 0600-1800 h) with controlled temperature conditions (22-24° C.). Fed blood glucose and body-weight was measured on day −2 in the morning between 08:00 AM and 09:00 AM. Animals were randomized into 2 groups according to fed glucose levels (on day −2). […]
Day 1 is the first day of dosing. […] At −15 min, blood glucose was measured (using a glucose analyzer) and animals were dosed with compounds of the invention or vehicle. At time point 0, blood glucose was measured again and glucose was administered by oral gavage (1 g/kg glucose). The blood glucose was then measured at time points 15, 30, 45, 60 and 120 minutes. […] The percentages of AUC inhibition induced by compounds of the invention were calculated as follows: % of AUC inhibition: [1-(AUC compound/AUC vehicule)]*100.

COc1ccccc1-c1ccc(C(=O)N2[C@@H](c3ccccc3Cl)CC[C@H]2C(=O)O)cc1 [Compound 1, (2S,5R)-5-(2-chlorophenyl)-1-(2′-methoxy-[1,1′-biphenyl]-4-carbonyl)pyrrolidine-2-carboxylic acid]
% of AUC inhibition: 40%
